Measurements: patent US20240390369A1, “METHODS FOR DETERMINING RESPONSIVENESS TO TYK2 INHIBITORS” (Bristol-Myers Squibb Company, priority 2021, published 2024)

Test system: patients with psoriatic arthritis
Experiment: Phase 2 trial in psoriatic arthritis: ACR20 response at week 16
Type: in vivo, human
Details: for Odds Ratio for ACR20 response / Interaction Term for ACR20 response (ratio of odds ratios): week 16
Method: In a double-blind Phase 2 trial, 203 patients with psoriatic arthritis were randomized into three groups: deucravacitinib 6 mg once daily (N=70), deucravacitinib 12 mg once daily (N=67), or placebo (N=66). All subjects had active psoriatic arthritis according to the Classification Criteria for Psoriatic Arthritis (CASPAR); for active disease, these criteria required ≥3 tender joint count, ≥3 swollen joint count, and a C-reactive protein level above 3 mg/L. Other inclusion criteria included the following: presence of at least one plaque psoriasis lesion, and prior treatment failure with a non-biologic disease modifying anti-rheumatic drug, a non-steroidal anti-inflammatory drug, or a steroid. With respect to treatment history, approximately 70% of subjects had not received prior treatment with a biologic and were biologic naïve, while up to 30% of subjects had failed or had been intolerant to one TNF-inhibitor (TNF=Tumor necrosis factor, also known as TNFα). Randomization was stratified by prior TNF-inhibitor use (experienced/naïve) and body weight (<90 kg and ≥90 kg).
Clinical measures included the Psoriasis […] (PASI) score for skin psoriasis, American College of Rheumatology 20 (ACR20) response, Psoriatic Arthritis Disease Activity Score (PASDAS), Health Assessment Questionnaire-Disability Index (HAQ-DI), and Disease Activity Score 28 CRP (DAS28). To evaluate the predictive value of different protein measurements for the clinical response to deucravacitinib, baseline protein concentrations for responders and non-responders, as defined by ACR20 or PASI75 at week 16, were compared for each arm (placebo, 6 mg deucravacitinib once-daily, and 12 mg deucravacitinib once-daily).
Boxplots for baseline protein level by response were generated with a horizontal line indicating the median protein level at baseline. For each treatment arm, a two-sample t-test was performed to test whether mean baseline serum protein level was different in responders versus non-responders. A Wilcoxon rank sum test (Mann-Whitney U test) was also performed to evaluate the difference in median serum protein level between responders and non-responders. Further, barplots of ACR20 and PASI75 response rate at week 16 for each treatment arm were generated for all subjects (protein level high and protein level low subjects, dichotomized according to median baseline level). Line plots of ACR20 and PASI75 response rate over time for each treatment arm were generated for protein level high and protein level low groups. Logistic regression models were also fit to evaluate associations between baseline protein levels and clinical outcome.
For certain analyses described herein, patients were dichotomized by median values (e.g., of the proteins listed above or other measures) into “high” and “low” groups, such that the high group had values above the median and the low group had values less than or equal to the median.
In addition, logistic regression models were fit for response measures ACR20 and PASI75, to generate the odds ratio of each of the deucravacitinib treatment arms versus placebo, in BD2-high and BD2-low groups. The following logistic regression models were used: • For ACR20 response status: ACR20 (Y/N)=treatment arm+BD2 group+treatment arm*BD2 group+TNF-inhibitor use+baseline weight (continuous). • For PASI75 response status: PASI75 (Y/N)=treatment arm+BD2 group+treatment arm*BD2 group+TNF-inhibitor use+baseline weight (continuous). […] FIGS. 26-31 are forest plots summarizing the logistic regression results of these models (for BD2 and other biomarkers described herein); each “N,” for “Placebo” and “Deucrava,” represents the number of responders in that group. […]

## [2H]C([2H])([2H])NC(=O)c1nnc(NC(=O)C2CC2)cc1Nc1cccc(-c2ncn(C)n2)c1OC [deucravacitinib, 6-(cyclopropanecarboxamido)-4-((2-methoxy-3-(1-methyl-1H-1,2,4-triazol-3-yl)phenyl)amino)-N-(methyl-d3)pyridazine-3-carboxamide]
BD2 high (baseline above median 9,265 ng/L), 6 mg QD vs placebo
  Odds Ratio for ACR20 response: 4.54
BD2 high (baseline above median 9,265 ng/L), 12 mg QD vs placebo
  Odds Ratio for ACR20 response: 7.33
BD2 high, treatment arms combined vs placebo
  Odds Ratio for ACR20 response: 5.645
BD2 low, 6 mg QD vs placebo
  Odds Ratio for ACR20 response: 1.44
BD2 low, 12 mg QD vs placebo
  Odds Ratio for ACR20 response: 2.15
BD2 low, treatment arms combined vs placebo
  Odds Ratio for ACR20 response: 1.767
CRP high, 6 mg QD vs placebo
  Odds Ratio, ACR20 response status: 2.167
CRP high, 12 mg QD vs placebo
  Odds Ratio, ACR20 response status: 5.140
CRP high, treatment arms combined vs placebo
  Odds Ratio, ACR20 response status: 3.215
CRP low, 6 mg QD vs placebo
  Odds Ratio, ACR20 response status: 2.756
CRP low, 12 mg QD vs placebo
  Odds Ratio, ACR20 response status: 2.676
CRP low, treatment arms combined vs placebo
  Odds Ratio, ACR20 response status: 2.715
CRP-high, 6 mg QD vs placebo, adjusted for baseline DAS28
  Odds Ratio, ACR20 response status: 2.168
CRP-high, 12 mg QD vs placebo, adjusted for baseline DAS28
  Odds Ratio, ACR20 response status: 5.154
CRP-low, 6 mg QD vs placebo, adjusted for baseline DAS28
  Odds Ratio, ACR20 response status: 2.752
CRP-low, 12 mg QD vs placebo, adjusted for baseline DAS28
  Odds Ratio, ACR20 response status: 2.670
IL-17A high (baseline above median 0.575 ng/L), 6 mg QD vs placebo
  Odds Ratio for ACR20 response: 4.30
IL-17A high (baseline above median 0.575 ng/L), 12 mg QD vs placebo
  Odds Ratio for ACR20 response: 5.95
IL-17A high group, 6 mg QD and 12 mg QD vs placebo (FIG. 22)
  ACR20 response rate at week 16: higher in both 6 mg QD and 12 mg QD treatment arms compared to placebo in the IL-17-high group
IL-17A high, treatment arms combined vs placebo
  Odds Ratio for ACR20 response: 4.990
IL-17A low, 6 mg QD vs placebo
  Odds Ratio for ACR20 response: 1.39
IL-17A low, 12 mg QD vs placebo
  Odds Ratio for ACR20 response: 2.14
IL-17A low, treatment arms combined vs placebo
  Odds Ratio for ACR20 response: 1.723
IL-19-high versus IL-19-low group (FIG. 15)
  ACR20 response rate at week 16: a much more pronounced treatment effect (indicating a dose response effect of deucravacitinib) was observed in the IL-19-high group than in the IL-19-low group
IL-19 high (baseline above median 36 ng/L), 6 mg QD vs placebo
  Odds Ratio for ACR20 response: 4.68
IL-19 high (baseline above median 36 ng/L), 12 mg QD vs placebo
  Odds Ratio for ACR20 response: 11.44
IL-19 high, treatment arms combined vs placebo
  Odds Ratio for ACR20 response: 6.679
IL-19 low, 6 mg QD vs placebo
  Odds Ratio for ACR20 response: 1.41
IL-19 low, 12 mg QD vs placebo
  Odds Ratio for ACR20 response: 1.56
IL-19 low, treatment arms combined vs placebo
  Odds Ratio for ACR20 response: 1.487
Adjusted for baseline DAS28, 6 mg QD vs placebo: BD2-high versus BD2-low
  Interaction Term for ACR20 response (ratio of odds ratios): 3.06
Adjusted for baseline DAS28, 6 mg QD vs placebo: IL-17A-high versus IL-17A-low
  Interaction Term for ACR20 response (ratio of odds ratios): 3.08
Adjusted for baseline DAS28, 6 mg QD vs placebo: IL-19-high versus IL-19-low
  Interaction Term for ACR20 response (ratio of odds ratios): 3.32
Adjusted for baseline DAS28, 12 mg QD vs placebo: BD2-high versus BD2-low
  Interaction Term for ACR20 response (ratio of odds ratios): 3.42
Adjusted for baseline DAS28, 12 mg QD vs placebo: IL-17A-high versus IL-17A-low
  Interaction Term for ACR20 response (ratio of odds ratios): 2.75
Adjusted for baseline DAS28, All patients, 12 mg QD vs placebo
  Odds Ratio for ACR20 response: 3.62
Adjusted for baseline DAS28, BD2-high, 6 mg QD vs placebo
  Odds Ratio for ACR20 response: 4.42
Adjusted for baseline DAS28, BD2-low, 6 mg QD vs placebo
  Odds Ratio for ACR20 response: 1.44
Adjusted for baseline DAS28, BD2-low, 12 mg QD vs placebo
  Odds Ratio for ACR20 response: 2.14
Adjusted for baseline DAS28, IL-17A-high, 6 mg QD vs placebo
  Odds Ratio for ACR20 response: 4.27
Adjusted for baseline DAS28, IL-17A-high, 12 mg QD vs placebo
  Odds Ratio for ACR20 response: 5.92
Adjusted for baseline DAS28, IL-17A-low, 6 mg QD vs placebo
  Odds Ratio for ACR20 response: 1.39
Adjusted for baseline DAS28, IL-19-high, 6 mg QD vs placebo
  Odds Ratio for ACR20 response: 4.66
Adjusted for baseline DAS28, IL-19-high, 12 mg QD vs placebo
  Odds Ratio for ACR20 response: 11.47
Adjusted for baseline DAS28, IL-19-low, 6 mg QD vs placebo
  Odds Ratio for ACR20 response: 1.40
Adjusted for baseline DAS28, IL-19-low, 12 mg QD vs placebo
  Odds Ratio for ACR20 response: 1.56
Treatment arms combined vs placebo: BD2 high versus BD2 low
  Interaction Term for ACR20 response (ratio of odds ratios): 3.195
Treatment arms combined vs placebo: CRP high versus CRP low
  Interaction Term: treatment arm*CRP group, ACR20: 1.184
Treatment arms combined vs placebo: IL-17A high versus IL-17A low
  Interaction Term for ACR20 response (ratio of odds ratios): 2.886
Treatment arms combined vs placebo: IL-19 high versus IL-19 low
  Interaction Term for ACR20 response (ratio of odds ratios): 4.491
